Drawing on US8232273B2, “Heterocyclic compounds and methods of use” (Genentech, Inc., priority 2008, dated 2012), this text covers Ki and IC50 for 17 compounds.

Molecules are shown by their SMILES.

Assay [1] concerns the target T1, Bcl-xL (GST-Bcl-xL) (Homo sapiens, UniProt Q07817). The assay is described as follows: TR-FRET binding assay, competition with F-Bak for the Bcl-xL binding site. The following applies: values listed in the order of Table 1, read-out: TR-FRET assay results (Ki), Bcl-xL.
Assay [2] deals with T1, Bcl-xL (GST-Bcl-xL). The assay is described as follows: AlphaScreen Bcl-xL binding assay, competition with biotinylated Bim peptide. Details: made in house. As to conditions: values listed in the order of Table 1; read-out: Alphascreen results (IC50) against the Bcl-xL protein. From the text:
The measurement of competition of compounds of the invention with Bim26-mer for a Bcl-2 family protein binding site using an Alpha Screen Bcl-xL binding assay:
The BH3 proteins AlphaScreen™ assay was used to identify active small molecules Bcl-2 family protein screen, e.g., Bcl-xL, hmMcl-1 screen.
The beads come in close proximity when the protein and the peptides interact. Donor beads contain a photosensitiser that converts oxygen to an excited form of O2 at an excitation of 680 nm. Energy is transformed from the singlet oxygen and reacts with chemiluminescers on the acceptor bead, resulting in light emission at 520-620 nm. […] With this information, the IC50 of each compound was calculated
GST-Bcl-xL, GST-hmMcl-1 and biotinylated GST proteins were prepared in-house and were stored as stock solutions at −80° C. The biotinylated-Bak, and biotinylated-Bim peptides were purchased from Auspep and were stored as 500 μM stock solutions in 100% DMSO at −80° C. […] DMSO was purchased from AnalaR.
Compounds of the invention were prepared as 10 mM stocks with 100% DMSO on the day prior to performing the assay. […] To achieve a final compound concentration of 1 μM, in a separate matrical plate, 28 μL of 100% DMSO and 2 μL of 10 mM compound was added to a well, mixed well, 2 μL of this solution was taken and added to 38 μL of 100% DMSO. 20 μL of this solution was added to the test matrical plate. Several control compounds were included in the test plates. For the control wells 15 μL 100% DMSO only was added to the appropriate wells of each plate. The compound plates were then serially diluted 2 fold using the MiniTrak. Once titrations were complete, the compound plate was immediately covered with a foil seal to prevent evaporation.
The assay and bead buffers were prepared fresh. Each titrated compound plate was assayed in duplicate. The following volumes were sufficient to run 12 Proxiplates (4 assay plates run in duplicate in each of Bclxl, hmMcl and counter assays)
Protein and Peptide Preparation; and Assay Performance • 1. The assay and bead buffers were used to prepare the acceptor and donor solutions. ALPHASCREEN™ beads are light sensitive and therefore prepared in a darkened room. 2.5 μL of beads were added per 1 mL of buffer. • 2. The volume of protein or peptide to add was calculated using the following formula:
V2=Volume of stock protein/Peptide to add to Acceptor/Donor solution • 3. The assay components were prepared as separate Acceptor and Donor Solutions. The Acceptor Solution contained Acceptor beads and target protein, while the Donor Solution contained Donor beads and biotinylated peptide.
• 4. After the solutions were prepared, they were left to incubate for 30 minutes at room temperature to allow the beads to bind to the protein and the peptide. • 5. 50 μL of Bcl-xL solution, 50 μL of hmMcl-1 solution and 50 μL of biotinylated-GST were added into separate deep wells on an assay plate. A control 50 μL Assay/Bead buffer was added separate well plates (no protein). • 6. 50 μL of Bim solution and 50 μL of Bak solution were added into separate deep well plates. • 7. Transfer 0.3 μL it of sample from the compound plate into each assay plate. • 8. Incubated for 30 mins at RT, then add 5 μL of the Donor solution. After addition of the Donor solution, tapped plates gently and sealed individually with adhesive film. • 9.
The percent inhibition was calculated using the following equation:
[formula] • x=RFU obtained after compound treatment • μ^−=RFU obtained for the negative controls (no protein controls) • μ^+=RFU obtained for the positive controls (DMSO vehicle controls)

T1 sequence (Q07817 whole entry, species assumed): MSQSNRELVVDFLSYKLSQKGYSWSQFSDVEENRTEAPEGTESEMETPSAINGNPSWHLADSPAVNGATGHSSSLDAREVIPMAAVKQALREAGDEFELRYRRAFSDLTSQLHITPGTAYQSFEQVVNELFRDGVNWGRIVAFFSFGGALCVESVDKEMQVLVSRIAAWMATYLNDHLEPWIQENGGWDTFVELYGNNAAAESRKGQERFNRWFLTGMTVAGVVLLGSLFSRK

For the compound `O=C(Nc1nc2ccccc2s1)c1cccc2c1CN(c1nc(C(=O)O)c(CCCOc3ccc(-n4ncc5cncnc54)cc3)s1)CC2` [Example 21, 5-(3-(4-(1H-pyrazolo[3,4-d]pyrimidin-1-yl)phenoxy)propyl)-2-(8-(benzo[d]thiazol-2-ylcarbamoyl)-3,4-dihydroisoquinolin-2(1H)-yl)thiazole-4-carboxylic acid], the Ki on Bcl-xL (GST-Bcl-xL) [1] worked out at 0.05 nM. On Bcl-xL (GST-Bcl-xL) [2], the IC50 is 0.3 nM.

In the case of `CC1(C)[C@H]2CC[C@]1(C)C(Oc1ccccc1OCCCc1sc(N3CCc4cccc(C(=O)Nc5nc6ccccc6s5)c4C3)nc1C(=O)O)C2` (stereo partly drawn) [Example 22, 2-(8-(benzo[d]thiazol-2-ylcarbamoyl)-3,4-dihydroisoquinolin-2(1H)-yl)-5-(3-(2-((1S,4S)-1,7,7-trimethylbicyclo[2.2.1]heptan-2-yloxy)phenoxy)propyl)thiazole-4-carboxylic acid], the Ki at Bcl-xL (GST-Bcl-xL) [1] came to 19 nM. On Bcl-xL (GST-Bcl-xL) [2], the IC50 was determined as 50 nM.

For the compound `O=C(Nc1nc2ccccc2s1)c1cccc2c1CN(c1nc(C(=O)O)c(CCCOc3ccc4nc(N5CCN(c6ccccn6)CC5)sc4c3)s1)CC2` [Example 23, 2-(8-(benzo[d]thiazol-2-ylcarbamoyl)-3,4-dihydroisoquinolin-2(1H)-yl)-5-(3-(2-(4-(pyridin-2-yl)piperazin-1-yl)benzo[d]thiazol-6-yloxy)propyl)thiazole-4-carboxylic acid], the inhibitory constant (Ki) at Bcl-xL (GST-Bcl-xL) [1] is 2 nM. In addition, the IC50 at Bcl-xL (GST-Bcl-xL) [2] was determined as 1 nM.

In the case of `O=C(Nc1nc2ccccc2s1)c1cccc2c1CN(c1nc(C(=O)O)c(CCCOc3ccc(C4(c5ccccc5)CCCC4)cc3)s1)CC2` [Example 24, 2-(8-(benzo[d]thiazol-2-ylcarbamoyl)-3,4-dihydroisoquinolin-2(1H)-yl)-5-(3-(4-(1-phenylcyclopentyl)phenoxy)propyl)thiazole-4-carboxylic acid], at Bcl-xL (GST-Bcl-xL) [1], the Ki came out at 7 nM. The IC50 at Bcl-xL (GST-Bcl-xL) [2] came out at 27 nM.

Take `N#CC1Cc2cc(OCCCc3sc(N4CCc5cccc(C(=O)Nc6nc7ccccc7s6)c5C4)nc3C(=O)O)ccc21` (stereo not shown) [Example 25, 2-(8-(benzo[d]thiazol-2-ylcarbamoyl)-3,4-dihydroisoquinolin-2(1H)-yl)-5-(3-(1-cyano-1,2-dihydrocyclobutabenzen-4-yloxy)propyl)thiazole-4-carboxylic acid]: the Ki at Bcl-xL (GST-Bcl-xL) [1] is 0.3 nM. Moreover, the IC50 at Bcl-xL (GST-Bcl-xL) [2] turned out to be 0.9 nM.

Regarding `N#CC1(c2ccc(OCCCc3sc(N4CCc5cccc(C(=O)Nc6nc7ccccc7s6)c5C4)nc3C(=O)O)cc2)CCC1` [Example 26, 2-(8-(benzo[d]thiazol-2-ylcarbamoyl)-3,4-dihydroisoquinolin-2(1H)-yl)-5-(3-(4-(1-cyanocyclobutyl)phenoxy)propyl)thiazole-4-carboxylic acid], the Ki at Bcl-xL (GST-Bcl-xL) [1] came out at 3 nM. At Bcl-xL (GST-Bcl-xL) [2], the IC50 was 5 nM.

As for `O=C(Nc1nc2ccccc2s1)c1cccc2c1CN(c1nc(C(=O)O)c(CCCOc3ccc4c5c3CCCN5CCC4)s1)CC2` [Example 27, 2-(8-(benzo[d]thiazol-2-ylcarbamoyl)-3,4-dihydroisoquinolin-2(1H)-yl)-5-(3-(1,2,3,5,6,7-hexahydropyrido[3,2,1-ij]quinolin-8-yloxy)propyl)thiazole-4-carboxylic acid], on Bcl-xL (GST-Bcl-xL) [1], the Ki was 1 nM. For the same compound, at Bcl-xL (GST-Bcl-xL) [2], the IC50 was determined as 7 nM.

As for `CCCN(CCc1ccc(OCCCc2sc(N3CCc4cccc(C(=O)Nc5nc6ccccc6s5)c4C3)nc2C(=O)O)cc1)CC1CCCc2c1ccc(OC)c2OC` (stereo not shown) [Example 28, 2-(8-(benzo[d]thiazol-2-ylcarbamoyl)-3,4-dihydroisoquinolin-2(1H)-yl)-5-(3-(4-(2-(((5,6-dimethoxy-1,2,3,4-tetrahydronaphthalen-1-yl)methyl)(propyl)amino)ethyl)phenoxy)propyl)thiazole-4-carboxylic acid], the Ki on Bcl-xL (GST-Bcl-xL) [1] was 1 nM. At Bcl-xL (GST-Bcl-xL) [2], the IC50 was 8 nM.

`Cc1cc(N2CCN(c3nc4ccccc4s3)CC2)ccc1OCCCc1sc(N2CCc3cccc(C(=O)Nc4nc5ccccc5s4)c3C2)nc1C(=O)O` [Example 29, 5-(3-(4-(4-(benzo[d]thiazol-2-yl)piperazin-1-yl)-2-methylphenoxy)propyl)-2-(8-(benzo[d]thiazol-2-ylcarbamoyl)-3,4-dihydroisoquinolin-2(1H)-yl)thiazole-4-carboxylic acid]: at Bcl-xL (GST-Bcl-xL) [1], the Ki was 23 nM. Besides, the IC50 on Bcl-xL (GST-Bcl-xL) [2] is 117 nM.

In the case of `N#C/C=C/c1cccc(OCCCc2sc(N3CCc4cccc(C(=O)Nc5nc6ccccc6s5)c4C3)nc2C(=O)O)c1` [Example 30, (E)-2-(8-(benzo[d]thiazol-2-ylcarbamoyl)-3,4-dihydroisoquinolin-2(1H)-yl)-5-(3-(3-(2-cyanovinyl)phenoxy)propyl)thiazole-4-carboxylic acid], the Ki at Bcl-xL (GST-Bcl-xL) [1] was found to be 0.4 nM. On Bcl-xL (GST-Bcl-xL) [2], the IC50 turned out to be 0.3 nM.

Consider `N#Cc1c(-c2ccc(OCCCc3sc(N4CCc5cccc(C(=O)Nc6nc7ccccc7s6)c5C4)nc3C(=O)O)cc2)n[nH]c1N` [Example 31, 5-(3-(4-(5-amino-4-cyano-1H-pyrazol-3-yl)phenoxy)propyl)-2-(8-(benzo[d]thiazol-2-ylcarbamoyl)-3,4-dihydroisoquinolin-2(1H)-yl)thiazole-4-carboxylic acid], for which the Ki at Bcl-xL (GST-Bcl-xL) [1] was 0.1 nM. For the same compound, the IC50 on Bcl-xL (GST-Bcl-xL) [2] was determined as 0.3 nM.

As to `N#Cc1c(-c2ccc(O)cc2)n[nH]c1NCCCc1sc(N2CCc3cccc(C(=O)Nc4nc5ccccc5s4)c3C2)nc1C(=O)O` [Example 32, 2-(8-(benzo[d]thiazol-2-ylcarbamoyl)-3,4-dihydroisoquinolin-2(1H)-yl)-5-(3-(4-cyano-3-(4-hydroxyphenyl)-1H-pyrazol-5-ylamino)propyl)thiazole-4-carboxylic acid], the Ki on Bcl-xL (GST-Bcl-xL) [1] came to 17 nM. The IC50 on Bcl-xL (GST-Bcl-xL) [2] was 50 nM.

On to `O=C(Nc1nc2ccccc2s1)c1cccc2c1CN(c1nc(C(=O)O)c(-c3ccc(CO)cc3)s1)CC2` [Example 34, 2-(8-(benzo[d]thiazol-2-ylcarbamoyl)-3,4-dihydroisoquinolin-2(1H)-yl)-5-(4-(hydroxymethyl)phenyl)thiazole-4-carboxylic acid], for which the inhibition constant (Ki) on Bcl-xL (GST-Bcl-xL) [1] came out at 4 nM. For the same compound, the IC50 on Bcl-xL (GST-Bcl-xL) [2] was 5 nM.

On to `N#Cc1c(-c2ccc(OCc3ccc(-c4sc(N5CCc6cccc(C(=O)Nc7nc8ccccc8s7)c6C5)nc4C(=O)O)cc3)cc2)n[nH]c1N` [Example 35, 5-(4-((4-(5-amino-4-cyano-1H-pyrazol-3-yl)phenoxy)methyl)phenyl)-2-(8-(benzo[d]thiazol-2-ylcarbamoyl)-3,4-dihydroisoquinolin-2(1H)-yl)thiazole-4-carboxylic acid], for which the Ki on Bcl-xL (GST-Bcl-xL) [1] came to 4 nM. Also, the IC50 at Bcl-xL (GST-Bcl-xL) [2] was determined as 10 nM.

For the compound `O=C(Nc1nc2ccccc2s1)c1cccc2c1CN(c1nc(C(=O)O)c(CCCO)s1)CC2` [Example 38, 2-(8-(Benzo[d]thiazol-2-ylcarbamoyl)-3,4-dihydroisoquinolin-2(1H)-yl)-5-(3-hydroxypropyl)thiazole-4-carboxylic acid], the Ki on Bcl-xL (GST-Bcl-xL) [1] was determined as 5 nM. Also, the concentration for half-maximal inhibition (IC50) on Bcl-xL (GST-Bcl-xL) [2] amounted to 5 nM.

As for `O=C(Nc1nc2ccccc2s1)c1cccc2c1CN(c1nc(C(=O)O)c(CCCOc3ccc(-c4cccnc4)cc3)s1)CC2` [Example 41, 2-(8-(Benzo[d]thiazol-2-ylcarbamoyl)-3,4-dihydroisoquinolin-2(1H)-yl)-5-(3-(4-(pyridin-3-yl)phenoxy)propyl)thiazole-4-carboxylic acid], on Bcl-xL (GST-Bcl-xL) [1], the Ki was 0.1 nM. For the same compound, the IC50 at Bcl-xL (GST-Bcl-xL) [2] amounted to 0.7 nM.

Turning to `N#Cc1c(-c2ccc(OCc3sc(N4CCc5cccc(C(=O)Nc6nc7ccccc7s6)c5C4)nc3C(=O)O)cc2)n[nH]c1N` [Example 45, 5-((4-(5-amino-4-cyano-1H-pyrazol-3-yl)phenoxy)methyl)-2-(8-(benzo[d]thiazol-2-ylcarbamoyl)-3,4-dihydroisoquinolin-2(1H)-yl)thiazole-4-carboxylic acid], the Ki on Bcl-xL (GST-Bcl-xL) [1] was found to be 1 nM. At Bcl-xL (GST-Bcl-xL) [2], the half-maximal inhibitory concentration (IC50) is 4 nM.
